Here are results for one compound from patent US11576914B2, “Drug for treating or preventing disorder caused by TGF-β signaling, and application thereof” (THE DOSHISHA, priority 2017, dated 2023).

Data set [1] concerns corneal endothelium. The data set is described as follows: Histological analysis of the corneal endothelium after instillation. It is filed as in vivo. An excerpt: Rabbits were euthanized, and then their eyes were removed and histologically analyzed. Expression of markers related to corneal endothelial functions was confirmed by immunostaining. The sclerocornea fragments were fixed with 0.5% paraformaldehyde and then blocked with 1% bovine serum albumin. As primary antibodies, ZO-1 antibody (Life Technologies) and N-cadherin antibody (BD Biosciences), which are indicators of the barrier function of corneal endothelial cells, and Na^+/K^+-ATPase antibody (MILLIPORE), which is an indicator of pump functions, were added, followed by standing at 4° C. overnight. […] Further, nuclear staining was performed using DAPI (Dojindo). To observe the cell morphology, actin was stained using Phalloidin (Life Technologies). The stained sclerocornea fragments were mounted in slide glasses and observed using a confocal fluorescence microscope (TCS SPE, Leica).
In addition, rabbits were euthanized, and then their eyes were removed. To assess cell death, the sclerocornea fragments were stained with Annexin V (Zymed Laboratories) and PI (Zymed Laboratories), fixed with 0.5% paraformaldehyde, and nuclear stained with DAPI (Dojindo). The stained sclerocornea fragments were mounted in slide glass and observed using a confocal fluorescence microscope (TCS SPE, Leica). Staurosporine (10 μM, Merck Millipore) was administered into the anterior chamber of a rabbit eyeball, and after 24 hours, it was used as a positive control.

Data set [2] concerns human corneal endothelial cells. The data set is described as follows: Cell Titer-Glo Luminescent Cell Viability Assay in the presence of AKP-001. In kind it is cell-based. Conditions: 24 hours. As to the method:
Human corneal endothelial cells were peeled off with Descemet's membranes from research-purpose donor corneas, followed by culturing. For the medium, the following was used: OptiMEM-I (invitrogen, 31985-088)+8% FBS (Thermo, SH30084.03)+5 ng/mL epidermal growth factor (invitrogen, PHG0311)+20 μg/mL L-ascorbic acid 2-sesquimagnesium phosphate hydrate (SIGMA, A8960)+200 mg/L calcium chloride dihydrate (SIGMA, C7902)+0.08% chondroitin sulfate (Wako Pure Chemical Industries, Ltd., 032-14613)+50 μg/mL gentamicin (invitrogen, 15710-064)+1 μM SB431542 (WAKO, 192-16541)+10 μM SB203580 (Cayman, 13067). Culture dishes pre-coated with laminin-511E8 (Nippi, 381-07363) were used.
Cultured human corneal endothelial cells were seeded at a rate of 1×10^4 per well in a 96-well plate coated with laminin-511E8, and the cells were cultured until reaching confluence at 37° C. (5% CO2). For the medium, used was OptiMEM-I (invitrogen, 31985-088)+8% FBS (Thermo, SH30084.03)+5 ng/mL epidermal growth factor (invitrogen, PHG0311)+20 μg/mL L-ascorbic acid 2-sesquimagnesium phosphate hydrate (SIGMA, A8960)+200 mg/L calcium chloride dihydrate (SIGMA, C7902)+0.08% chondroitin sulfate (Wako Pure Chemical Industries, Ltd., 032-14613)+50 μg/mL gentamicin (invitrogen, 15710-064)+1 μM SB431542 (WAKO, 192-16541)+10 μM SB203580 (Cayman, 13067).
Upon reaching confluence, the culturing was further conducted for one more week with OptiMEM-I (invitrogen, 31985-088)+8% FBS (Thermo, SH30084.03)+20 μg/mL+200 mg/L calcium chloride dihydrate (SIGMA, C7902)+0.08% chondroitin sulfate (Wako Pure Chemical Industries, Ltd., 032-14613)+50 μg/mL gentamicin (invitrogen, 15710-064). […]
The medium was discarded to 50 μl per well, and Cell Titer-Glo Luminescent Cell Viability Assay solution (Promega, G7572) was added to the 50 μl/well to reach 1:1 with the medium. […] After standing, 50 μl was transferred to an Assay plate (Corning, 3912, Assay plate well, white polystyrene), and the […] was measured using GloMax-Multi Detection System (Promega, E7051).
For orientation: Cellular ATP, detected with luciferase, serves as a proxy for viable cell number.

In data set [3] the test system is rabbits. The experiment in a line: Eye irritation testing (AKP-001 instillation). It is filed as in vivo, rabbit. Here is the method:
Rabbits that met the above criteria were used in the testing. The testing was carried out using a total of 4 rabbits. Fifty μl of 0.1 mM AKP-001 was instilled into the right eyes of the rabbits, and the eyes were maintained in a closed state for 30 seconds. The left eyes were instilled with a vehicle in the same manner. This operation was performed every 30 minutes and 10 times in total.
The anterior eye part was observed before and after the instillation using a slit lamp microscope (SL-D7, Topcon). The anterior eye part was stained with fluorescein sodium test paper (Showa Yakuhin Kako Co., Ltd.) and observed with a slit lamp microscope with regard to the presence or absence of corneal epithelial disorder. Further, the corneal thickness, corneal shape, and corneal volume thereof were analyzed using Pentacam® HR (OCULUS). The corneal endothelium was observed using a scanning slit-type, contact-type corneal endothelium specular microscope (Konan Medical, Inc.). Further, the central corneal thickness was measured using an ultrasonic pachymeter (SP-100, Tomey Corporation), and the intraocular pressure was measured using Tonovet® (ME Technica).
Corneal transparency was evaluated by the following Grading.
Opacity: degree of turbidity (the most turbid area is read.)

Setting [4] is: prior to and after 10 instillations.

Each structure is given as a SMILES string. Values joined by “and” are separate entries in the source; they are usually repeats but may differ in a detail not shown here. Equal entries are not always repeated. “Also recorded” adds a separate entry of the source.

Consider `O=C(Cc1c(F)cccc1Cl)Nc1onc(-c2ccc(F)cc2)c1-c1ccncn1` [AKP-001, 5-[(2-chloro-6-fluorophenyl)acetylamino]-3-(4-fluorophenyl)-4-(4-pyrimidinyl)isoxazole], for which, in data set [1] (eyeball instilled 10 times), the N-cadherin immunostaining result was “Expression along the cell membrane”; the “Na+/K+-ATPase immunostaining” value is given as “Expression along the cell membrane”; the ZO-1 immunostaining entry is reported as “Expression along the cell membrane”; the “actin staining, form of the corneal endothelium” value is on record as “polygonal paving stones”. For the same compound, in data set [1] (rabbit, in vivo), the “Annexin V and PI staining (cell death)” value is “Neither staining with Annexin V nor PI was observed”. Besides, the “cell damage (cell viability)” value in data set [2] (0.1 μM, 0.3 μM, 1 μM, 3 μM or 10 μM) was “no cell damage was observed”. Besides, the “number of the cells (cell viability)” value in data set [2] (30 μM and 100 μM) was “significantly reduced the number of the cells”. For the same compound, the “concentrations at which less toxic to the cells” value in data set [2] is given as “less than 30 μM”. In addition, in data set [3] (0.1 mM instilled 10 times), the “corneal thickness (Pentacam HR)” value is given as “No obvious changes”; the “epithelial disorder of the keratoconjunctiva, fluorescein staining” value was “no epithelial disorder of the stained keratoconjunctiva was observed”; the hyperemia entry is on record as “no hyperemia was observed”; the “inflammation of the anterior eye part” value is listed as “no inflammation or the like was observed; also recorded: no inflammation of the anterior eye part was observed”. Moreover, the “shape of the cornea (Scheimpflug images)” value in data set [3] (0.1 mM instilled 10 times) is recorded as “No obvious change”. In addition, the “corneal endothelium, specular microscope images” value in data set [3] (10 instillations) was “No obvious changes”. The “cornea, slit lamp microscope” value in data set [3] (50 μl of 0.1 mM instilled 10 times every 30 minutes) is listed as “transparent”. The corneal transparency score entry in data set [3] (before and after 10 instillations, all the corneas) is “zero and 0”. In addition, in data set [3] (setting [4]), the “central corneal thickness (ultrasonic pachymeter)” value is reported as “No significant changes”; the “corneal volume (10 mm diameter, Pentacam HR)” value is given as “No significant changes”; the “intraocular pressure (Tonovet)” value is “No significant changes”.
